Literature values as cited in patent publication US20080102137A1, “Composition and method for etiological treatment and prevention of diseases and/or complications associated with chronic glucose metabolism destabilization” (priority 2006, published 2008).

Legend:
[1] = patients with panic disorders
[2] = 600 mg synthetic α-tocopherol daily for 14 days, diabetic individuals
fat cells = settings: test tube assay of fat cells
blood platelet = blood platelet assay

Q: For `CN(C)C(=N)N=C(N)N` [Metformin], which “lowers fasting blood glucose levels” value (average) is on record?
A: 25%

Q: And the “reduces raised plasma insulin levels” value (cases of metabolic syndrome)?
A: ≤ 30%

Q: What about the “lowers postprandial blood glucose” value (in vivo) of the same molecule?
A: up to 44.5%

Q: For `O[C@H]1[C@H](O)[C@@H](O)[C@H](O)[C@@H](O)[C@H]1O` [inositol], which “frequency and severity of panic attacks” value [1] is on record?
A: reduction in the frequency and severity of panic attacks

Q: Which “biochemical marker of oxidative stress” value [2] does the source give for `Cc1c(C)c2c(c(C)c1O)CC[C@@](C)(CCC[C@H](C)CCC[C@H](C)CCCC(C)C)O2` [α-tocopherol] here?
A: reduction in the oxidative stress marker

Q: With methylhydroxy chalcone polymer [MHCP] as the molecule, how does the increased glucose metabolism (fat cells) read?
A: roughly 20 fold

Q: And the “formation of damaging oxygen radicals” value (blood platelet)?
A: prevented the formation of damaging oxygen radicals
